Test results reported in patent publication US8263606B2 (Xenon Pharmaceuticals Inc., priority 2008, dated 2012).

How the values were obtained:
CYP3A4 = CYP3A4 (Homo sapiens, UniProt P08684); assay: Cytochrome P450 (CYP450) Inhibition Assay, CYP3A4 (Vivid fluorescence, BOMCC substrate); conditions: human, P450 Baculosomes (recombinant CYP3A4), probe BOMCC (Vivid substrate)
sodium channel = assay: Guanidine influx assay (14C-guanidine radiotracer flux, in vitro); format: cell-based, human or rat; conditions: guanidine influx assay using a known cell line that expresses a sodium channel; activity level class
Outline: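 Aconitine holds channels open while 14C-guanidine enters human or rat sodium-channel-expressing cells in choline-substituted low-sodium saline, with test agent present at ambient temperature. Retained tracer is scintillation-counted and IC50 fitted by a four-parameter logistic model.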

CYP3A4, sequence (P08684 whole entry): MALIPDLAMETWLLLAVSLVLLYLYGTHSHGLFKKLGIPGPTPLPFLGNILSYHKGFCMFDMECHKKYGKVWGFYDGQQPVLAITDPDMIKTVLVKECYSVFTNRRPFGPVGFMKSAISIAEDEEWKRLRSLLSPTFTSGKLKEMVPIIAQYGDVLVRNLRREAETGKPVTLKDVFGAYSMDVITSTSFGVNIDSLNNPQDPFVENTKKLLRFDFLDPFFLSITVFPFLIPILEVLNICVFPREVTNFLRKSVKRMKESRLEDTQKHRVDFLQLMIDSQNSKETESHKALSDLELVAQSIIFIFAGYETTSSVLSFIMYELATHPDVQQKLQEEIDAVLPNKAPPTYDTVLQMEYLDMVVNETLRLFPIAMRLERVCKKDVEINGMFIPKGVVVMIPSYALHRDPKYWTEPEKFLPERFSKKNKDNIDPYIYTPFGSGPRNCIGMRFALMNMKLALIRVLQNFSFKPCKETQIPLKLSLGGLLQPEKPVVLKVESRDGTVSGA

melting point	inhibition at 10 µM (CYP3A4)	IC50 (sodium channel)	SMILES
134 to 138 °C	< 50%	1000 to 10000 nM	O=C1N(C[C@H]2CCCO2)c2ccccc2C12COc1cc3c(cc12)OCCCO3 (stereo partly drawn) [Example 8.11, 1′-[(2R)-tetrahydrofuran-2-ylmethyl]-3,4-dihydro-2H-spiro[furo[2,3-h][1,5]benzodioxepine-9,3′-indol]-2′(1′H)-one]
186 to 187 °C	< 50%	1000 to 10000 nM	Cn1c(=O)oc2cc3c(cc21)OCC31C(=O)N(C[C@H]2CCCO2)c2ccccc21 (stereo partly drawn) [Example 8.14, 3-methyl-1′-(((R)-tetrahydrofuran-2-yl)methyl)-2H-spiro[benzofuro[6,5-d]oxazole-7,3′-indoline]-2,2′(3H,6H)-dione]
205 to 207 °C	< 50%	1 to 100 nM	O=C1N(Cc2ccccn2)c2c(F)cccc2C12COc1cc3c(cc12)OCCO3 (stereo not drawn) [Example 8.15, 7′-fluoro-1′-(pyridin-2-ylmethyl)-3,7-dihydro-2H-spiro[benzofuro[5,6-b][1,4]dioxine-8,3′-indolin]-2′-one]
241 to 243 °C	< 50%	1 to 100 nM	O=C1N(Cc2ncccc2C(F)(F)F)c2c(F)cccc2C12COc1cc3c(cc12)OCCO3 (stereo not drawn) [Example 8.16, 7′-fluoro-1-((3-(trifluoromethyl)pyridin-2-yl)methyl)-3,7-dihydro-2H-spiro[benzofuro[5,6-b][1,4]dioxine-8,3′-indolin]-2′-one]
191 to 193 °C	< 50%	1 to 100 nM	O=C1N(Cc2ccccc2C(F)F)c2ccccc2C12COc1cc3c(cc12)OCCO3 (stereo not drawn) [Example 8.17]
197 to 200 °C	< 50%	1 to 100 nM	O=C1N(Cc2cncc(F)c2)c2ccccc2[C@]12COc1cc3c(cc12)OCCO3 [Example 8.19, (8S)-1′-[(5-fluoropyridin-3-yl)methyl]-2,3-dihydrospiro[furo[2,3-g][1,4]benzodioxine-8,3′-indol]-2′(1′H)-one]
105 to 107 °C	> 50%	100 to 1000 nM	COCCOCCN1C(=O)C2(COc3cc4c(cc32)CCO4)c2ccccc21 (stereo not drawn) [Example 9.1, 1′-[2-(2-methoxyethoxy)ethyl]-5,6-dihydrospiro[benzo[1,2-b:5,4-b′]difuran-3,3′-indol]-2′(1′H)-one]
133 to 136 °C	< 50%	1000 to 10000 nM	O=C1CC[C@@H](CN2C(=O)C3(COc4cc5c(cc43)CCO5)c3ccccc32)N1 (stereo partly drawn) [Example 9.2, 1′-{[(2S)-5-oxopyrrolidin-2-yl]methyl}-5,6-dihydrospiro[benzo[1,2-b:5,4-b′]difuran-3,3′-indol]-2′(1′H)-one]
185 to 186 °C	> 50%	1000 to 10000 nM	O=C1OCCN1CCN1C(=O)C2(COc3cc4c(cc32)CCO4)c2ccccc21 (stereo not drawn) [Example 9.3, 1′-[2-(2-oxo-1,3-oxazolidin-3-yl)ethyl]-5,6-dihydrospiro[benzo[1,2-b:5,4-b′]difuran-3,3′-indol]-2′(1′H)-one]
217 to 219 °C	< 50%	100 to 1000 nM	O=C1N(Cc2ccc(-c3ccccn3)cc2)c2ccccc2C12COc1cc3c(cc12)CCO3 (stereo not drawn) [Example 9.4, 1-(4-pyridin-2-ylbenzyl)-5,6-dihydrospiro[benzo[1,2-b:5,4-b′]difuran-3,3′-indol]-2′(1′H)-one]
203 to 205 °C	< 50%	1 to 100 nM	O=C1N(Cc2ncccn2)c2ccccc2C12COc1cc3c(cc12)CCO3 (stereo not drawn) [Example 9.5, 1′-(pyrimidin-2-ylmethyl)-5,6-dihydrospiro[benzo[1,2-b:5,4-b′]difuran-3,3′-indol]-2′(1′H)-one]
143 to 144 °C	< 50%	1 to 100 nM	O=C1N(Cc2cnccn2)c2ccccc2C12COc1cc3c(cc12)CCO3 (stereo not drawn) [Example 9.7, 1′-(pyrazin-2-ylmethyl)-5,6-dihydrospiro[benzo[1,2-b:5,4-b′]difuran-3,3′-indol]-2′(1′H)-one]
192 to 193 °C	> 50%	1 to 100 nM	O=C1N(Cc2cc3cccc(F)c3o2)c2ccccc2C12COc1cc3c(cc12)CCO3 (stereo not drawn) [Example 9.8, 1′-[(7-fluoro-1-benzofuran-2-yl)methyl]-5,6-dihydrospiro[benzo[1,2-b:5,4-b′]difuran-3,3′-indol]-2′(1′H)-one]
81 to 82 °C	< 50%	100 to 1000 nM	O=C1N(Cc2cccnn2)c2ccccc2C12COc1cc3c(cc12)CCO3 (stereo not drawn) [Example 9.9, 1′-(pyridazin-3-ylmethyl)-5,6-dihydrospiro[benzo[1,2-b:5,4-b′]difuran-3,3′-indol]-2′(1′H)-one]
197 to 198 °C	< 50%	1000 to 10000 nM	O=C1NCC(CN2C(=O)C3(COc4cc5c(cc43)CCO5)c3ccccc32)O1 (stereo not drawn) [Example 9.10, 1′-[(2-oxo-1,3-oxazolidin-5-yl)methyl]-5,6-dihydrospiro[benzo[1,2-b:5,4-b′]difuran-3,3′-indol]-2′(1′H)-one]
66 to 68 °C	< 50%	100 to 1000 nM	O=C1N(Cc2cccc(OCc3ccccc3)c2)c2ccccc2C12COc1cc3c(cc12)CCO3 (stereo not drawn) [Example 9.11, 1′-[3-(benzyloxy)benzyl]-5,6-dihydrospiro[benzo[1,2-b:5,4-b′]difuran-3,3′-indol]-2′(1′H)-one]
244 to 246 °C	> 50%	100 to 1000 nM	Cn1c(CN2C(=O)C3(COc4cc5c(cc43)CCO5)c3ccccc32)nc2ccccc21 (stereo not drawn) [Example 9.12, 1′-[(1-methyl-1H-benzimidazol-2-yl)methyl]-5,6-dihydrospiro[benzo[1,2-b:5,4-b′]difuran-3,3′-indol]-2′(1′H)-one]
102 to 105 °C	> 50%	1 to 100 nM	O=C1N(Cn2nc3ccccc3n2)c2ccccc2C12COc1cc3c(cc12)CCO3 (stereo not drawn) [Example 9.13, 1′-(2H-benzotriazol-2-ylmethyl)-5,6-dihydrospiro[benzo[1,2-b:5,4-b′]difuran-3,3′-indol]-2′(1′H)-one]
97 to 98 °C	> 50%	1 to 100 nM	COC(=O)c1cccc(CN2C(=O)C3(COc4cc5c(cc43)CCO5)c3ccccc32)c1 (stereo not drawn) [Example 9.15, methyl 3-[(2′-oxo-5,6-dihydrospiro[benzo[1,2-b:5,4-b′]difuran-3,3′-indol]-1′(2′H)-yl)methyl]benzoate]
136 to 140 °C	< 50%	1 to 100 nM	COC(=O)c1ccc(CN2C(=O)C3(COc4cc5c(cc43)CCO5)c3ccccc32)cc1 (stereo not drawn) [Example 9.16, methyl 4-[(2′-oxo-5,6-dihydrospiro[benzo[1,2-b:5,4-b′]difuran-3,3′-indol]-1′(2′H)-yl)methyl]benzoate]
112 to 113 °C	> 50%	100 to 1000 nM	O=C1N(CCCOCc2ccccc2)c2ccccc2C12COc1cc3c(cc12)CCO3 (stereo not drawn) [Example 9.17, 1′-[3-(benzyloxy)propyl]-5,6-dihydrospiro[benzo[1,2-b:5,4-b′]difuran-3,3′-indol]-2′(1′H)-one]
167 to 169 °C	> 50%	100 to 1000 nM	O=C1N(C[C@H]2CCCO2)c2ccc(F)cc2C12COc1cc3c(cc12)CCO3 (stereo partly drawn) [Example 9.18, 5′-fluoro-1′-[(2R)-tetrahydrofuran-2-ylmethyl]-5,6-dihydrospiro[benzo[1,2-b:5,4-b′]difuran-3,3′-indol]-2′(1′H)-one]
137 to 139 °C	< 50%	100 to 1000 nM	O=C1N(C[C@H]2CCCO2)c2cc(F)ccc2C12COc1cc3c(cc12)CCO3 (stereo partly drawn) [Example 9.19, 6′-fluoro-1′-[(2R)-tetrahydrofuran-2-ylmethyl]-5,6-dihydrospiro[benzo[1,2-b:5,4-b′]difuran-3,3′-indol]-2′(1′H)-one]
249 to 250 °C	< 50%	1000 to 10000 nM	Cc1nc2cc3c(cc2s1)C1(CO3)C(=O)N(Cc2ccccn2)c2ccccc21 (stereo not drawn) [Example 9.21, 2-methyl-1′-(pyridin-2-ylmethyl)spiro[furo[2,3-f][1,3]benzothiazole-7,3′-indol]-2′(1′H)-one]
177 to 178 °C	> 50%	1000 to 10000 nM	Cc1nc2cc3c(cc2s1)C1(CO3)C(=O)N(Cc2ncc(Cl)n2C)c2ccccc21 (stereo not drawn) [Example 9.22, 1′-[(5-chloro-1-methyl-1H-imidazol-2-yl)methyl]-2-methylspiro[furo[2,3-f][1,3]benzothiazole-7,3′-indol]-2′(1′H)-one]
176 to 177 °C	> 50%	1 to 100 nM	Cc1noc2cc3c(cc12)C1(CO3)C(=O)N(Cc2cccnc2)c2ccccc21 (stereo not drawn) [Example 9.25, 3-methyl-1′-(pyridin-3-ylmethyl)spiro[furo[3,2-f][1,2]benzisoxazole-5,3′-indol]-2′(1′H)-one]
134 to 135 °C	< 50%	100 to 1000 nM	Cc1noc2cc3c(cc12)C1(CO3)C(=O)N(C[C@H]2CCCO2)c2ccccc21 (stereo partly drawn) [Example 9.26, 3-methyl-1′-[(2R)-tetrahydrofuran-2-ylmethyl]spiro[furo[3,2-f][1,2]benzisoxazole-5,3′-indol]-2′(1′H)-one]
199 to 201 °C	> 50%	1000 to 10000 nM	Cc1cc2c(cc1C)C1(CO2)C(=O)N(CC2CCOCC2)c2ccccc21 (stereo not drawn) [Example 9.27, 5,6-dimethyl-1′-(tetrahydro-2H-pyran-4-ylmethyl)spiro[1-benzofuran-3,3′-indol]-2′(1′H)-one]
